We go through two molecules from US12059413B2, “Methods of inhibiting viruses using compositions targeting TSG101-ubiquitin interaction” (The Research Foundation for the State University of New York, priority 2016, dated 2024).

Assay [1] concerns Gag-Tsg101 co-localization on the plasma membrane. The assay is described as follows: Gag-Tsg101 co-localization by fluorescence microscopy, Pearson's coefficient. The format is cell-based. Here is the method:
FIG. 19A-F. N16 (50 μM) prevents co-localization of Gag and Tsg101 on the plasma membrane. A-E) Fluorescence microscopy images of cells that co-express Tsg101-Myc alone or GagWT-GFP and Tsg101-Myc. Cells grown on coverslips were co-transfected with DNA encoding Tsg101-Myc (A) or Tsg101-Myc and GagWT-GFP (B, D and E) or GagP7L-GFP (C) and treated with F15 (D) or N16 (E). After 24 hr the coverslips were processed for microscopy with Tsg101-Myc detected with anti-Myc antibody and Texas Red secondary antibody as described in Materials & Methods. A) Tsg101-Myc in cells treated with DMSO carrier (top) or N16 (bottom). B-E), Top panels, show signal from Gag-GFP; middle panels, images showing Tsg101-Myc signal; bottom panels, merged images showing signals from Gag-GFP and Tsg101-Myc. Boxes frame a region of the plasma membrane. F) Pearson's coefficient of correlation values determined for the images shown. Error bars indicate the highest values obtained for similar samples. n=6.
FIG. 26A-D. N16 binds covalently to C73 in the Tsg101 UEV domain. A) Activation of N16 to reactive sulfenamide. N16 (i) is converted to intermediates sulfenic acid (ii) and sulfenamide (iii) through acid catalysis to yield a covalently attached N16-Tsg101 UEV complex (iv). B) HNCACB Cβ regions for residues C73, L74, 186 and C87 of Tsg101 without (−) and with (+) N16. C) Examination by fluorescence microscopy of cells co-expressing GagWT-GFP and Tsg101WT-Myc, Tsg101C73A-Myc or Tsg101C87A-Myc in the absence and presence of 50 μM N16. n=3 D) Pearson's coefficient of correlation values.
Hela cells grown on cover slips were transfected with pCMV-Gag-EGFP alone or together with pLLEXP1-hTsg101-myc. Cells were fixed in 4% formaldehyde (Sigma) and permeabilized in 0.1% Triton X-100. Tsg101 was detected in the samples by indirect immunofluorescence using anti-myc Mab and Texas Red anti-mouse IgG. Nuclei were stained with Hoechst. Images were captured on an inverted fluorescence/differential-interference contrast (dic) Zeiss Axiovert 200M deconvolving fluorescence microscope operated by AxioVision Version 4.5 (Zeiss) software and deconvolved by using the constrained iterative method (AxioVision). Protein co-localization was assessed in 40 or more cells by determination of Pearson's coefficient of correlation using Image J software and regarded as significant when a value of 0.6 or higher (equivalent to a 95% level of confidence for that number of cells) was observed (Manders, E. M. M., et al. (1993)).

In the next assay the test system is HIV-1 Gag VLP. Put plainly: Gag VLP production / budding, Western blot analysis. The format is cell-based. How it is done: FIG. 15A-D. N16 inhibits HIV-1 NL4-3 and Gag VLP production. A) Effect on virus production. Virus particles from N16-treated 293T cells transfected with pNL4-3 as determined by ELISA assay. Top, The compound was added 6 hr prior to DNA transfection and tissue culture media was harvested 24 hr later. Bottom, The compound was added at the indicated concentration 24 hr after DNA transfection and tissue culture media was harvested 24 hr later. Assay values were normalized to that of the DMSO carrier control. B) Effect on virus infectivity. Infectious viral particles per ng p24 as determined by MAGI assay. C) Left, Electron microscopy of particles at cell surface at 24 hr post-N16 addition; Right, Quantitative analysis of budding morphologies. Cells expressing WT- or P7L-NL4-3 were exposed to DMSO carrier or 50 μM N16. Arrows indicate emerging ‘Early’ buds. D) Effects on Gag VLP production. Top, Western blot analysis. Cells treated at the indicated concentration were transfected with DNA encoding Gag-HA. At the end of the treatment period, tissue culture media was removed for VLP isolation. Cells were suspended in lysis buffer. Blots were probed for Gag-HA and actin. Bottom, Quantitative analysis. Ratio of VLP- or cell-associated Gag to actin normalized to the mock-treated control (0 μM N16). Number of independent trials (n) for A), B), C), and D)=3, 2, 2 and 3, respectively.
FIG. 21A-B. N16 suppresses the inhibitory effect of fusing DUb to Gag. […] Top, Western blot analysis of Gag in cushioned VLP samples; Middle, Gag and actin in cell lysates; Bottom, Quantitative analysis of VLP release efficiency normalized to the WT Gag control (Gag and Gag-DUb differed in sample size in order to yield visible signal); B) Effect of N16 on Gag and GagDUb VLP production. […] Bottom, Quantitative analysis of VLP production (left), lysate Gag (center) and VLP release efficiency (right) normalized to the mock-treated control. […]
For production of virus particles, 293T cells were transfected with pNL4-3-ΔEnv and pIIIB Env3-1 plasmids and for virus-like particles (VLP), with pCMV-Gag-HA as previously described (Watanabe et al. (2013)). For specific infectivity, media-associated p24 was determined by ELISA (Immunodiagnostics, Inc.) and equivalent amounts of p24 were used to infect HeLa-CD4+-LTR-3 gal cells for infectivity measurement by the multinuclear activation of a galactosidase indicator (MAGI) assay. […] For cell-associated Gag analysis, cell pellets were lysed with either Triton X-100 or RIPA buffer with complete mini protease inhibitor cocktail (Roche) and analyzed by Western blotting. Protein bands were visualized using an infrared-based imaging system (Odyssey, LI-COR Biotechnology) and band intensities measured using the Li-Cor Odyssey software version 2.1.15. […]

In the case of `COc1ccc2nc([S@@+]([O-])Cc3ncc(C)c(OC)c3C)[nH]c2c1` [F15, esomeprazole], the “reduction of intensity of Gag-Tsg101 co-localization signal” value in assay [1] is roughly 2 fold. Further, the “effectiveness in tissue culture budding assay” value with HIV-1 Gag VLP (compared with Tenatoprazole) is reported as “less effective than Tenatoprazole”.
For the molecule `COc1ccc2[nH]c([S+]([O-])Cc3ncc(C)c(OC)c3C)nc2n1` (centres unmarked) [N16, tenatoprazole], in assay [1] (50 μM N16), the “co-localization of Gag and Tsg101C73A-myc” value is recorded as “failed to prevent co-localization”; the “co-localization of Gag and Tsg101C87A-myc” value is recorded as “effectively eliminated co-localization”. The “reduction of intensity of Gag-Tsg101 co-localization signal” value in assay [1] is roughly 2 fold. In addition, the “budding directed by WT Gag” value with HIV-1 Gag VLP (50 μM N16, 293T) is reported as “inhibited”. Moreover, in the assay on HIV-1 Gag VLP (293T, FIG. 15D), the “Gag intracellular accumulation and VLP formation” value is “dose-dependent reduction”. For the same molecule, the “budding of the Gag-DUb fusion” value in the assay with HIV-1 Gag VLP (N16 present, 293T) was “not inhibited”.
